According to patent US20230085307A1, “PYRIDAZINONE COMPOUND AND HERBICIDE” (NISSAN CHEMICAL CORPORATION, priority 2019, published 2023):

Experiments:
[1] = tested on: green foxtail; assay: Test Example 4: herbicidal effect by soil treatment (Table 19, symbol G); assay type: in vivo, green foxtail (Setaria viridis); settings: AAH 320 g/ha
Method in brief: (§1)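 Step 1: sow seeds in sterilized diluvial soil, cover ~1.5 cm. Step 2: spray diluted emulsion onto soil surface at predetermined rate. Step 3: greenhouse, 25–30° C, three weeks. Step 4: grade effect on each plant by earlier criteria.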

[2] = tested on: rice flat sedge; assay: Test Example 3: herbicidal effect by foliage application, Wagner pot (Table 18, symbol E); assay type: in vivo, rice flat sedge (Cyperus iria); settings: 320 g/ha
Method in brief: (§2)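 Plants were sown in alluvial soil held under 0.1–0.5 cm standing water and grown 14 days in a greenhouse at 25–30 °C. An emulsifiable formulation, water-diluted to the set dose, was then sprayed onto the foliage, and effects were scored three weeks later using previously defined criteria.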

[3] = tested on: velvetleaf; assay: Test Example 5: herbicidal effect by foliage application, plastic box (Table 20, symbol M); assay type: in vivo, velvetleaf (Abutilon theophrasti); settings: foliage application, AAH 320 g/ha, three weeks after application
Method in brief: (§3)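 Foliar spray test: emulsion formulation diluted in water to a set application rate, sprayed onto 14-day-old plants raised in diluvial soil at 25° C to 30° C under glass. Both herbicidal effect and crop effect rated visually three weeks later.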

[4] = tested on: wild oat; assay: Test Example 4: herbicidal effect by soil treatment (Table 19, symbol I); assay type: in vivo, wild oat (Avena fatua); settings: AAH 320 g/ha
Method in brief: as §1

[5] = tested on: redroot pigweed; assay: Test Example 4: herbicidal effect by soil treatment (Table 19, symbol N); assay type: in vivo, redroot pigweed (Amaranthus retroflexus); settings: AAH 320 g/ha
Method in brief: as §1

[6] = tested on: velvetleaf; assay: Test Example 4: herbicidal effect by soil treatment (Table 19, symbol M); assay type: in vivo, velvetleaf (Abutilon theophrasti); settings: AAH 320 g/ha
Method in brief: as §1

[7] = tested on: chickweed; assay: Test Example 4: herbicidal effect by soil treatment (Table 19, symbol P); assay type: in vivo, common chickweed (Stellaria media); settings: AAH 320 g/ha
Method in brief: as §1

[8] = tested on: persian speedwell; assay: Test Example 5: herbicidal effect by foliage application, plastic box (Table 20, symbol R); assay type: in vivo, Persian speedwell (Veronica persica); settings: foliage application, AAH 320 g/ha, three weeks after application
Method in brief: as §3

[9] = tested on: lambsquarters; assay: Test Example 4: herbicidal effect by soil treatment (Table 19, symbol O); assay type: in vivo, lambsquarters (Chenopodium album); settings: AAH 320 g/ha
Method in brief: as §1

[10] = tested on: green foxtail; assay: Test Example 5: herbicidal effect by foliage application, plastic box (Table 20, symbol G); assay type: in vivo, green foxtail (Setaria viridis); settings: foliage application, AAH 320 g/ha, three weeks after application
Method in brief: as §3

[11] = tested on: persian speedwell; assay: Test Example 4: herbicidal effect by soil treatment (Table 19, symbol R); assay type: in vivo, Persian speedwell (Veronica persica); settings: AAH 320 g/ha
Method in brief: as §1

[12] = tested on: wild oat; assay: Test Example 5: herbicidal effect by foliage application, plastic box (Table 20, symbol I); assay type: in vivo, wild oat (Avena fatua); settings: foliage application, AAH 320 g/ha, three weeks after application
Method in brief: as §3

[13] = tested on: barnyard grass; assay: Test Example 4: herbicidal effect by soil treatment (Table 19, symbol H); assay type: in vivo, barnyard grass (Echinochloa crus-galli); settings: AAH 320 g/ha
Method in brief: as §1

[14] = tested on: windgrass; assay: Test Example 5: herbicidal effect by foliage application, plastic box (Table 20, symbol L); assay type: in vivo, windgrass (Apera spica-venti); settings: foliage application, AAH 320 g/ha, three weeks after application
Method in brief: as §3

[15] = tested on: Chinese sprangletop; assay: Test Example 3: herbicidal effect by foliage application, Wagner pot (Table 18, symbol D); assay type: in vivo, chinese sprangletop (Leptochloa chinensis); settings: 320 g/ha
Method in brief: as §2

[16] = tested on: southern crabgrass; assay: Test Example 5: herbicidal effect by foliage application, plastic box (Table 20, symbol F); assay type: in vivo, southern crabgrass (Digitaria ciliaris); settings: foliage application, AAH 320 g/ha, three weeks after application
Method in brief: as §3

[17] = tested on: windgrass; assay: Test Example 4: herbicidal effect by soil treatment (Table 19, symbol L); assay type: in vivo, windgrass (Apera spica-venti); settings: AAH 320 g/ha
Method in brief: as §1

[18] = tested on: chickweed; assay: Test Example 5: herbicidal effect by foliage application, plastic box (Table 20, symbol P); assay type: in vivo, common chickweed (Stellaria media); settings: foliage application, AAH 320 g/ha, three weeks after application
Method in brief: as §3

[19] = tested on: Italian ryegrass; assay: Test Example 5: herbicidal effect by foliage application, plastic box (Table 20, symbol K); assay type: in vivo, Italian ryegrass (Lolium multiflorum); settings: foliage application, AAH 320 g/ha, three weeks after application
Method in brief: as §3

[20] = tested on: Italian ryegrass; assay: Test Example 4: herbicidal effect by soil treatment (Table 19, symbol K); assay type: in vivo, Italian ryegrass (Lolium multiflorum); settings: AAH 320 g/ha
Method in brief: as §1

[21] = tested on: redroot pigweed; assay: Test Example 5: herbicidal effect by foliage application, plastic box (Table 20, symbol N); assay type: in vivo, redroot pigweed (Amaranthus retroflexus); settings: foliage application, AAH 320 g/ha, three weeks after application
Method in brief: as §3

[22] = tested on: lambsquarters; assay: Test Example 5: herbicidal effect by foliage application, plastic box (Table 20, symbol O); assay type: in vivo, lambsquarters (Chenopodium album); settings: foliage application, AAH 320 g/ha, three weeks after application
Method in brief: as §3

[23] = tested on: blackgrass; assay: Test Example 4: herbicidal effect by soil treatment (Table 19, symbol J); assay type: in vivo, blackgrass (Alopecurus myosuroides); settings: AAH 320 g/ha
Method in brief: as §1

[24] = tested on: barnyard grass; assay: Test Example 5: herbicidal effect by foliage application, plastic box (Table 20, symbol H); assay type: in vivo, barnyard grass (Echinochloa crus-galli); settings: foliage application, AAH 320 g/ha, three weeks after application
Method in brief: as §3

[25] = tested on: southern crabgrass; assay: Test Example 4: herbicidal effect by soil treatment (Table 19, symbol F); assay type: in vivo, southern crabgrass (Digitaria ciliaris); settings: AAH 320 g/ha
Method in brief: as §1

[26] = tested on: barnyard grass; assay: Test Example 3: herbicidal effect by foliage application, Wagner pot (Table 18, symbol H); assay type: in vivo, barnyard grass (Echinochloa crus-galli); settings: 320 g/ha
Method in brief: as §2

[27] = tested on: blackgrass; assay: Test Example 5: herbicidal effect by foliage application, plastic box (Table 20, symbol J); assay type: in vivo, blackgrass (Alopecurus myosuroides); settings: foliage application, AAH 320 g/ha, three weeks after application
Method in brief: as §3

| SMILES | G: green foxtail, herbicidal effect rating [1] | herbicidal effect on E (rice flat sedge), rating 0-5 [2] | M: velvetleaf, herbicidal effect [3] | I: wild oat, herbicidal effect rating [4] | N: redroot pigweed, herbicidal effect rating [5] | M: velvetleaf, herbicidal effect rating [6] | P: chickweed, herbicidal effect rating [7] | R: persian speedwell, herbicidal effect [8] | O: lambsquarters, herbicidal effect rating [9] | G: green foxtail, herbicidal effect [10] | R: persian speedwell, herbicidal effect rating [11] | I: wild oat, herbicidal effect [12] | H: barnyard grass, herbicidal effect rating [13] | L: windgrass, herbicidal effect [14] | herbicidal effect on D (Chinese sprangletop), rating 0-5 [15] | F: southern crabgrass, herbicidal effect [16] | L: windgrass, herbicidal effect rating [17] | P: chickweed, herbicidal effect [18] | K: Italian ryegrass, herbicidal effect [19] | K: Italian ryegrass, herbicidal effect rating [20] | other results |
| --- | --- | --- | --- | --- | --- | --- | --- | --- | --- | --- | --- | --- | --- | --- | --- | --- | --- | --- | --- | --- | --- |
| C=Cc1ccc(-c2sc3ccccc3c2-c2c(O)c(C)nn(C)c2=O)cc1 [1-127] | 0 (Herbicidal rate of 5% or less (almost no effect)) | 5 (Herbicidal rate of 90% or more (almost completely withered)) | 5 (Herbicidal rate of 90% or more (almost completely withered)) | 0 (Herbicidal rate of 5% or less (almost no effect)) | 5 (Herbicidal rate of 90% or more (almost completely withered)) | 2 (Herbicidal rate of 20% or more and less than 40%) | 0 (Herbicidal rate of 5% or less (almost no effect)) | 5 (Herbicidal rate of 90% or more (almost completely withered)) | 4 (Herbicidal rate of 70% or more and less than 90%) | 4 (Herbicidal rate of 70% or more and less than 90%) | 4 (Herbicidal rate of 70% or more and less than 90%) | 0 (Herbicidal rate of 5% or less (almost no effect)) | 0 (Herbicidal rate of 5% or less (almost no effect)) | 5 (Herbicidal rate of 90% or more (almost completely withered)) | 3 (Herbicidal rate of 40% or more and less than 70%) | 2 (Herbicidal rate of 20% or more and less than 40%) | 0 (Herbicidal rate of 5% or less (almost no effect)) | 5 (Herbicidal rate of 90% or more (almost completely withered)) | 5 (Herbicidal rate of 90% or more (almost completely withered)) | 5 (Herbicidal rate of 90% or more (almost completely withered)) | N: redroot pigweed, herbicidal effect [21]: 5 (Herbicidal rate of 90% or more (almost completely withered)); O: lambsquarters, herbicidal effect [22]: 5 (Herbicidal rate of 90% or more (almost completely withered)); J: blackgrass, herbicidal effect rating [23]: 0 (Herbicidal rate of 5% or less (almost no effect)); H: barnyard grass, herbicidal effect [24]: 4 (Herbicidal rate of 70% or more and less than 90%); F: southern crabgrass, herbicidal effect rating [25]: 0 (Herbicidal rate of 5% or less (almost no effect)); herbicidal effect on H (barnyard grass), rating 0-5 [26]: 0 (Herbicidal rate of 5% or less (almost no effect)); J: blackgrass, herbicidal effect [27]: 1 (Herbicidal rate of 5% or more and less than 20%) |
| Cc1nn(C)c(=O)c(-c2c(-c3ccc(C(F)(F)F)cc3)sc3ccccc23)c1O [1-129] | 0 (Herbicidal rate of 5% or less (almost no effect)) | 5 (Herbicidal rate of 90% or more (almost completely withered)) | 5 (Herbicidal rate of 90% or more (almost completely withered)) | 0 (Herbicidal rate of 5% or less (almost no effect)) | 5 (Herbicidal rate of 90% or more (almost completely withered)) | 2 (Herbicidal rate of 20% or more and less than 40%) | 1 (Herbicidal rate of 5% or more and less than 20%) | 5 (Herbicidal rate of 90% or more (almost completely withered)) | 5 (Herbicidal rate of 90% or more (almost completely withered)) | 2 (Herbicidal rate of 20% or more and less than 40%) | 4 (Herbicidal rate of 70% or more and less than 90%) | 0 (Herbicidal rate of 5% or less (almost no effect)) | 0 (Herbicidal rate of 5% or less (almost no effect)) | 0 (Herbicidal rate of 5% or less (almost no effect)) | 3 (Herbicidal rate of 40% or more and less than 70%) | 0 (Herbicidal rate of 5% or less (almost no effect)) | 0 (Herbicidal rate of 5% or less (almost no effect)) | 5 (Herbicidal rate of 90% or more (almost completely withered)) | 5 (Herbicidal rate of 90% or more (almost completely withered)) | 5 (Herbicidal rate of 90% or more (almost completely withered)) | N: redroot pigweed, herbicidal effect [21]: 5 (Herbicidal rate of 90% or more (almost completely withered)); O: lambsquarters, herbicidal effect [22]: 4 (Herbicidal rate of 70% or more and less than 90%); J: blackgrass, herbicidal effect rating [23]: 0 (Herbicidal rate of 5% or less (almost no effect)); H: barnyard grass, herbicidal effect [24]: 3 (Herbicidal rate of 40% or more and less than 70%); F: southern crabgrass, herbicidal effect rating [25]: 0 (Herbicidal rate of 5% or less (almost no effect)); herbicidal effect on H (barnyard grass), rating 0-5 [26]: 3 (Herbicidal rate of 40% or more and less than 70%); J: blackgrass, herbicidal effect [27]: 0 (Herbicidal rate of 5% or less (almost no effect)) |
